Patent US20120245137A1 (Zalicus Pharmaceuticals Ltd., priority 2009, published 2012)
Like-named read-outs stand apart in the source and are kept apart here.

Assays:
[1] = target: N-type calcium channel subunits (α1B, α2δ, and β3a) (Homo sapiens, UniProt Q00975); experiment: Block of Cav2.2 channel, whole cell voltage clamp, manual and PatchXpress; assay type: cell-based; conditions: Table 5; table follows Assay Example 3 (whole cell voltage clamp / PatchXpress); assay not given
Method in brief: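 Percent block taken as current amplitude ratio with versus without compound, applied in rising doses; IC50 fitted where one cell received multiple doses. Protocol: 50 ms pulses to +20 mV at 0.067 Hz from […] or −90 mV holding; P/n leak subtraction, no junction-potential correction; manual and PatchXpress recordings.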

[2] = target: human α1G T-type channels (Homo sapiens, UniProt O43497); experiment: T-type calcium channel block, whole cell patch clamp, α1G; assay type: cell-based; conditions: HEK cells stably expressing human α1G; mainly non-inactivated protocol; values above 10,000 nM represented as 10000
Method in brief: (§1)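 Using standard patch-clamp, T-type currents were recorded from stably transfected human α1G or α1H HEK 293 cells. Separate non-inactivating and inactivation voltage protocols distinguished resting from voltage-dependent block by locally applied compound in 0.1-0.01% DMSO.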

[3] = system: mice; experiment: Mouse rotarod assay; conditions: rod at 6 rpm
Experimental: In mice, the rotarod procedure (Dunham and Miya, J. Am. Pharmacol. Assoc. 46:208-209 (1957)) is used to disclose minimal muscular or neurological impairment (MMI). When a mouse is placed on a rod that rotates at a speed of 6 rpm, the animal can maintain its equilibrium for long periods of time. The animal is considered toxic if it falls off this rotating rod three times during a 1-min period.

[4] = target: human α1H T-type channels (Homo sapiens, UniProt O95180); experiment: T-type calcium channel block, whole cell patch clamp, α1H; assay type: cell-based; conditions: HEK cells stably expressing human α1H; mainly non-inactivated protocol; values above 10,000 nM represented as 10000
Method in brief: as §1

[5] = system: male CF1 mice; experiment: 6 Hz psychomotor seizure model of partial epilepsy; assay type: in vivo; design: concentration or dose not given beside the values; conditions: 6 Hz 32 mA corneal stimulus
From the text: Compounds can also be evaluated for the protection against seizures induced by a 6 Hz, 0.2 ms rectangular pulse width of 3 s duration, at a stimulus intensity of 32 mA (CC97) applied to the cornea of male CF1 mice (20-30 g) according to procedures described by Barton et al, “Pharmacological Characterization of the 6 Hz Psychomotor Seizure Model of Partial Epilepsy,” Epilepsy Res. 47(3):217-27 (2001). Seizures are characterised by the expression of one or more of the following behaviours: stun, forelimb clonus, twitching of the vibrissae and Straub-tail immediately following electrical stimulation.

[6] = target: Human Cav 2.2 channels (Homo sapiens, UniProt Q00975); experiment: Fluorescent assay for CaV2.2 channels using potassium depolarization (VIPR/FLIPR); assay type: cell-based; conditions: FLIPR data
Method in brief: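 Fluo-4 calcium fluorescence (480/535 nm) was recorded on VIPR or FLIPR after depolarization to 70 mM final potassium. Before this, cells were preincubated 30 min at 25 °C with compound in 4–30 mM potassium, so that state-dependent block could be assessed; the cells were HEK293 coexpressing Cav2.2, α2δ, β and Kir2.3.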

[7] = target: CAv1.2 (Homo sapiens, UniProt Q13936); experiment: L-type (CAv1.2) channel blocking, FLIPR data (Table 6); assay type: cell-based
[8] = target: T-type calcium channel (Homo sapiens, UniProt O95180); experiment: T-type channel blocking, FLIPR data (Table 6); assay type: cell-based; conditions: for CAv3.2 IC50 Ratio closed/inact.: CAv3.2, ratio closed/inact.
From the text: (§2) Another method, high-throughput spectrophotometric assay, utilizes loading of the cell lines with a fluorescent dye sensitive to intracellular calcium concentration and subsequent examination of the effects of compounds on the ability of depolarization by potassium chloride or other means to alter intracellular calcium levels.

[9] = target: T-type calcium channel (Homo sapiens, UniProt O43497); experiment: T-type channel blocking, FLIPR data (Table 6); assay type: cell-based; conditions: CAv3.1
From the text: as §2

[10] = closed state, read-out: CAv2.2 IC50 Closed
[11] = inactivated state, read-out: CAv2.2 IC50 Inact.
[12] = closed state, read-out: CAv1.2 IC50 Closed
[13] = inactivated state, read-out: CAv1.2 IC50 Inact.
[14] = CAv3.2, closed state, read-out: CAv3.2 IC50 Closed
[15] = CAv3.2, inactivated state, read-out: CAv3.2 IC50 Inact.

Sequence of Human Cav 2.2 channels (Q00975 whole entry): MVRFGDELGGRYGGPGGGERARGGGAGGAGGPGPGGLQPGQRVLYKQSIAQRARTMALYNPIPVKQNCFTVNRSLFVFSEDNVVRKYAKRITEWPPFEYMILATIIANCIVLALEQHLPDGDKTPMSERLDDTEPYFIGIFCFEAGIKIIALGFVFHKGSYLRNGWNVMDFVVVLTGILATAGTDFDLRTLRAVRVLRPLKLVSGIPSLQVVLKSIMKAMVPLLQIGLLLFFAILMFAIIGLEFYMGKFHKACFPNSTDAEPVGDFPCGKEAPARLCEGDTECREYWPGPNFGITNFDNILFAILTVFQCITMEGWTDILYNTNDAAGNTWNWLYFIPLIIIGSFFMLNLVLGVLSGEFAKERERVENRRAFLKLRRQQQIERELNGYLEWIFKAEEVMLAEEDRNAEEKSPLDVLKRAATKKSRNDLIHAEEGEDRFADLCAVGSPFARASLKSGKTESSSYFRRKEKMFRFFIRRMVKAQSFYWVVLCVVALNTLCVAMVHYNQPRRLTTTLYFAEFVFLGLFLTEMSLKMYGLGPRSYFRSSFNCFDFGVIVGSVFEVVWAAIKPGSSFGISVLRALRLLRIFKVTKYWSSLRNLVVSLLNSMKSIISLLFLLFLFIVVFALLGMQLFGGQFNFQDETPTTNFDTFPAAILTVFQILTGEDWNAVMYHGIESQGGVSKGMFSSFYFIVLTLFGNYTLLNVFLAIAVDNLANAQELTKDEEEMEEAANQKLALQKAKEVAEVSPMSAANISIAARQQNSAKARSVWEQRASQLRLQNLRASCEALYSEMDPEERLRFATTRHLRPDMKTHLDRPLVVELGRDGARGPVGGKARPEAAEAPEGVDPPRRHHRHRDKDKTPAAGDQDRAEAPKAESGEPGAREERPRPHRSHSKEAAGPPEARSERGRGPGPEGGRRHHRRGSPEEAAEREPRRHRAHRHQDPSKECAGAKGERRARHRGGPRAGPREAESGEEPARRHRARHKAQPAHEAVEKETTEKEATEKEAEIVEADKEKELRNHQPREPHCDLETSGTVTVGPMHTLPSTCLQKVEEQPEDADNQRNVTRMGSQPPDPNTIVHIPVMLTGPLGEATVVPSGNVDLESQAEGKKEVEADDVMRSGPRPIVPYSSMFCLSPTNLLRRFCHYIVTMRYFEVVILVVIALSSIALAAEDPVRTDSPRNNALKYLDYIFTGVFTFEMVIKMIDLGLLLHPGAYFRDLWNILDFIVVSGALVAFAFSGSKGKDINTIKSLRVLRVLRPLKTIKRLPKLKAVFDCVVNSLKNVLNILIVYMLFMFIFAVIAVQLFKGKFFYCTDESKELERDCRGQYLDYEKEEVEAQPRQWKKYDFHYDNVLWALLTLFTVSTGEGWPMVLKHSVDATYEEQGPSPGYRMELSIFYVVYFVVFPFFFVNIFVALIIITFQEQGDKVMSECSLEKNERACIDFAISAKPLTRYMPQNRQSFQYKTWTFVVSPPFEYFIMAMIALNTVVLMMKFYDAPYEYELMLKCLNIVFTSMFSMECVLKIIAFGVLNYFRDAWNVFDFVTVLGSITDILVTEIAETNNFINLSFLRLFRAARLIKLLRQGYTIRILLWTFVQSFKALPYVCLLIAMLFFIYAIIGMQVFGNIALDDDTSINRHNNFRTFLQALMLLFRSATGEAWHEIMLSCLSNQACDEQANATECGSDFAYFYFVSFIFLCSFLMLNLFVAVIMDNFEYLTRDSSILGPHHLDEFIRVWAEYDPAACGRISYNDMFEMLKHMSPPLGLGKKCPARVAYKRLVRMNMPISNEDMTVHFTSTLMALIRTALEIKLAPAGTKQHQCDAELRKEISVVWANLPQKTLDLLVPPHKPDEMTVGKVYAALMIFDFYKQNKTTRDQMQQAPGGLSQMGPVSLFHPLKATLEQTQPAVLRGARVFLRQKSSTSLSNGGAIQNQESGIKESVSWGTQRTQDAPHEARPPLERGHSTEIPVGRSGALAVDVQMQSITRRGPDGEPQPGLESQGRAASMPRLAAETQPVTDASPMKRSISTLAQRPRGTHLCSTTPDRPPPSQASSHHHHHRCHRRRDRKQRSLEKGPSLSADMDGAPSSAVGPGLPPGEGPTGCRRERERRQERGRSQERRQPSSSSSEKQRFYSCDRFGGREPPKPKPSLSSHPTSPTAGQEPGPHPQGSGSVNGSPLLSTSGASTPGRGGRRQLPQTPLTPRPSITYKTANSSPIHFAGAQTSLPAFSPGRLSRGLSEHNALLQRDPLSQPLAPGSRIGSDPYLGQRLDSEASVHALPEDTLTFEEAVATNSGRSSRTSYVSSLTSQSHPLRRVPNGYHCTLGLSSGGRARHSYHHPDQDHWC
Sequence of Human Cav 2.2 channels (P54289 25-1103 partner): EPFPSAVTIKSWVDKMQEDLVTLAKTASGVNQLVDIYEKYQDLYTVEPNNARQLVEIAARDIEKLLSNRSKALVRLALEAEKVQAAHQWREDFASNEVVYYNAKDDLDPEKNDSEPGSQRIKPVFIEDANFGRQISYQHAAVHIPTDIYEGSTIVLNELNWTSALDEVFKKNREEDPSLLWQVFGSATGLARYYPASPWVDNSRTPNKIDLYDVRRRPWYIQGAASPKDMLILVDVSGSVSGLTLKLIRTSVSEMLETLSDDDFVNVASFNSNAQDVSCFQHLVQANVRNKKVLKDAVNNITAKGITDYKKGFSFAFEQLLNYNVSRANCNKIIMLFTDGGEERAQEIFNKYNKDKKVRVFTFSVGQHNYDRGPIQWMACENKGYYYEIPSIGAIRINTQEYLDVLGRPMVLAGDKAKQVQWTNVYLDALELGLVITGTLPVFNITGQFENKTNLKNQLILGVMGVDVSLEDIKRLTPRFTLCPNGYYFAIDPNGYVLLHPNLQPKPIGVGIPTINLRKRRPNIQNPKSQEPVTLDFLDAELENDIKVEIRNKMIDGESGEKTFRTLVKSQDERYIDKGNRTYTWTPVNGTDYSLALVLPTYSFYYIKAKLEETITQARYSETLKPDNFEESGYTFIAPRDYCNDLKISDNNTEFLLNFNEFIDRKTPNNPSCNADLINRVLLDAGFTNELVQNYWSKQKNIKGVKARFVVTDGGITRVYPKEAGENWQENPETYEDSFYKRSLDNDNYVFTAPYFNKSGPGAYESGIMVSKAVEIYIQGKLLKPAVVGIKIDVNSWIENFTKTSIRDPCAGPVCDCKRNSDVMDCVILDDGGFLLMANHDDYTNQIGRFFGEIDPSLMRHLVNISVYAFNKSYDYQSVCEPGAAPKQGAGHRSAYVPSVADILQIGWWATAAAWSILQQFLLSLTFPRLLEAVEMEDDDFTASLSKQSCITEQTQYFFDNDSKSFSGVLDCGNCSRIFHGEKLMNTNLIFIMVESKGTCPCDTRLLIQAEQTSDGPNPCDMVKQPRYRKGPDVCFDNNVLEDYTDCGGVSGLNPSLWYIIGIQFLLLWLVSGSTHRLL
Sequence of Human Cav 2.2 channels (P54284 whole entry partner): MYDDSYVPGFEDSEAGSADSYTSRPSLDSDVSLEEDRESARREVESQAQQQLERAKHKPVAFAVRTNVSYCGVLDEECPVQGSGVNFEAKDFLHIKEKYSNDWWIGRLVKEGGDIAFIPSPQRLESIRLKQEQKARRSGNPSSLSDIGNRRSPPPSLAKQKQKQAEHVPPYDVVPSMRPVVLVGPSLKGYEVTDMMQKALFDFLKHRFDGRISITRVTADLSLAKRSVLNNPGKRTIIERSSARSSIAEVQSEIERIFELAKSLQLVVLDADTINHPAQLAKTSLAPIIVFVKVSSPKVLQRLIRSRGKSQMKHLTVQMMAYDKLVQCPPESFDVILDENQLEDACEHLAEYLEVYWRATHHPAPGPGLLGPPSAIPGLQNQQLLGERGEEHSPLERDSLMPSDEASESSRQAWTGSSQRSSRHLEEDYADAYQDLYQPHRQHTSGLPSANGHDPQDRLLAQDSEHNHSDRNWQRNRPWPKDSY
Sequence of N-type calcium channel subunits (α1B, α2δ, and β3a) (Q00975 whole entry): as the sequence (Q00975 whole entry) above
Sequence of N-type calcium channel subunits (α1B, α2δ, and β3a) (P54289 25-1103 partner): as the sequence (P54289 25-1103 partner) above
Sequence of N-type calcium channel subunits (α1B, α2δ, and β3a) (P54284 whole entry partner): as the sequence (P54284 whole entry partner) above

SMILES	IC50 [6, 10]	IC50 [6, 11]	CAv2.2 IC50 Ratio closed/inact. [6]	IC50 [8, 14]	IC50 [8, 15]	CAv3.2 IC50 Ratio closed/inact. [8]	IC50 [9]	EPILEPSY ROTAROD (% IMPAIRED) 0.25 hr [3]	EPILEPSY ROTAROD (% IMPAIRED) 0.5 hr [3]	EPILEPSY ROTAROD (% IMPAIRED) 1 hr [3]	EPILEPSY ROTAROD (% IMPAIRED) 2 hr [3]	EPILEPSY ROTAROD (% IMPAIRED) 4 hr [3]	Epilepsy 6 Hz (% protected) 0.25 hr [5]	Epilepsy 6 Hz (% protected) 0.5 hr [5]	Epilepsy 6 Hz (% protected) 1 hr [5]	Epilepsy 6 Hz (% protected) 2 hr [5]	Epilepsy 6 Hz (% protected) 4 hr [5]	IC50 [7, 12]	IC50 [7, 13]	CAv1.2 IC50 Ratio closed/inact. [7]	further results
O=C(NC1CCC(F)(S(=O)(=O)c2cccc(C(F)(F)F)c2)CC1)c1nocc1C1CC1 [Compound 272, 4-cyclopropyl-N-((1S,4S)-4-fluoro-4-(3-(trifluoromethyl)phenylsulfonyl)cyclohexyl) isoxazole-3-carboxamide]								0%	0%	0%	0%	0%	0%	0%	0%	0%	0%				IC50 [1]: 430 nM; IC50 [2]: > 10 µM; IC50 [4]: > 10 µM
O=C(NC1CCC(F)(S(=O)(=O)c2cccc(C(F)(F)F)c2)CC1)[C@@H]1C[C@@H](c2ccccc2)CN1 (stereo partly drawn) [Compound 285, (2S,4S)-N-((1S,4R)-4-fluoro-4-(3-(trifluoromethyl)phenylsulfonyl)cyclohexyl)-4-phenylpyrrolidine-2-carboxamide]								100%	100%	100%	100%	0%	0%	100%	100%	100%	0%				
CS(=O)(=O)c1nc(C(F)(F)F)ccc1C(=O)NCC1CC(S(=O)(=O)c2cccc(C(F)(F)F)c2)C1 [Compound 365, 2-(methylsulfonyl)-6-(trifluoromethyl)-N-(((1R,3R)-3-(3-(trifluoromethyl)phenylsulfonyl)cyclobutyl)methyl)nicotinamide]								0%	0%	0%	0%	0%	25%	50%	50%	25%	25%				IC50 [1]: 1610 nM; IC50 [2]: 6.48 µM; IC50 [4]: 2.19 µM
CC(C)([C@H]1C[C@@H](NC(=O)c2cc(C(F)(F)F)n[nH]2)C1)S(=O)(=O)c1cccc(C(F)(F)F)c1 [Compound 543]								0%	0%	0%	0%	0%	0%	0%	0%	0%	0%				
O=C(c1ccc(OCC(F)(F)F)nc1)N1CC(CS(=O)(=O)c2cc(F)cc(C(F)(F)F)c2)C1 [Compound 747]	10 µM	5.05 µM	2	9.95 µM	5.57 µM	1.8	≥ 10 µM											≥ 10 µM	8.8 µM	1.1	
CC(C)([C@H]1C[C@H](C(=O)Nc2cc(C(F)(F)F)n[nH]2)C1)S(=O)(=O)c1cccc(C(F)(F)F)c1 [Compound 762]	6.26 µM	0.39 µM	16.1	≥ 10 µM	1.84 µM	5.4	2.63 µM											≥ 10 µM	7.23 µM	1.4	
CC(C)([C@H]1C[C@@H](NC(=O)c2cc(C(F)(F)F)ccn2)C1)S(=O)(=O)c1cccc(C(F)(F)F)c1 [Compound 551]								0%	0%	0%	0%	0%	25%	0%	0%	0%	0%				
CC(C)([C@H]1C[C@@H](NC(=O)c2ccc(C(F)(F)F)cc2S(C)(=O)=O)C1)S(=O)(=O)c1cccc(C(F)(F)F)c1 [Compound 542]								0%	0%	0%	0%	0%	0%	0%	0%	0%	0%				
CC(C)S(=O)(=O)c1cc(C(F)(F)F)cnc1C(=O)NC[C@H]1C[C@H](S(=O)(=O)c2cccc(C(F)(F)F)c2)C1 [Compound 374, 3-(isopropylsulfonyl)-5-(trifluoromethyl)-N-(((1R,3R)-3-(3-(trifluoromethyl)phenylsulfonyl)cyclobutyl)methyl)picolinamide]								0%	0%	0%	0%	0%	0%	0%	0%	0%	0%				IC50 [1]: 250 nM; IC50 [2]: 7.73 µM; IC50 [4]: 2.11 µM

Second part, led by results:

IC50 [6, 10]	IC50 [6, 11]	CAv2.2 IC50 Ratio closed/inact. [6]	IC50 [8, 14]	IC50 [8, 15]	CAv3.2 IC50 Ratio closed/inact. [8]	IC50 [9]	SMILES	EPILEPSY ROTAROD (% IMPAIRED) 0.25 hr [3]	EPILEPSY ROTAROD (% IMPAIRED) 0.5 hr [3]	EPILEPSY ROTAROD (% IMPAIRED) 1 hr [3]	EPILEPSY ROTAROD (% IMPAIRED) 2 hr [3]	EPILEPSY ROTAROD (% IMPAIRED) 4 hr [3]	Epilepsy 6 Hz (% protected) 0.25 hr [5]	Epilepsy 6 Hz (% protected) 0.5 hr [5]	Epilepsy 6 Hz (% protected) 1 hr [5]	Epilepsy 6 Hz (% protected) 2 hr [5]	Epilepsy 6 Hz (% protected) 4 hr [5]	IC50 [7, 12]	IC50 [7, 13]	CAv1.2 IC50 Ratio closed/inact. [7]	further results
2.87 µM	0.19 µM	15.1	4.62 µM	0.73 µM	6.3	2.8 µM	CC(C)([C@H]1C[C@H](C(=O)Nc2ccc(C(F)(F)F)nc2)C1)S(=O)(=O)c1cccc(C(F)(F)F)c1 [Compound 760]											≥ 10 µM	3.55 µM	2.8	
3.7 µM	0.28 µM	13.2	5.86 µM	1.88 µM	3.1	4.91 µM	CC(C)([C@H]1C[C@H](CNc2cc(C(F)(F)F)n[nH]2)C1)S(=O)(=O)c1cccc(C(F)(F)F)c1 [Compound 752]											8.6 µM	2.81 µM	3.1	
4.48 µM	0.75 µM	6	≥ 10 µM	2.49 µM	4	5.25 µM	CC(C)([C@H]1C[C@@H](CNc2cc(C(F)(F)F)n[nH]2)C1)S(=O)(=O)c1cccc(C(F)(F)F)c1 [Compound 755]											8.17 µM	3.88 µM	2.1	
4.17 µM	0.39 µM	10.7	6.82 µM	3.56 µM	1.9	4.57 µM	Cc1nc(C(F)(F)F)ccc1NC(=O)[C@H]1C[C@H](C(C)(C)S(=O)(=O)c2cccc(C(F)(F)F)c2)C1 [Compound 768]											≥ 10 µM	4.42 µM	2.3	
5.79 µM	0.55 µM	10.5	6.06 µM	2.29 µM	2.6	2.22 µM	CC(C)([C@H]1C[C@@H](C(=O)Nc2cc(C(F)(F)F)n[nH]2)C1)S(=O)(=O)c1cccc(C(F)(F)F)c1 [Compound 757]											≥ 10 µM	5.39 µM	1.9	
